The test system of assay [1] is KB. As to the kind of experiment: Resistance factor (RF), ratio between the IC50 on the resistant cells and the IC50 on the corresponding sensitive cells of KB cell line. Type of assay: functional, Homo sapiens.
A further assay concerns SK-MES-1. Put plainly: Resistance factor (RF), ratio between the IC50 on the resistant cells and the IC50 on the corresponding sensitive cells of MES cell line. Type of assay: functional, Homo sapiens.
The subject of assay [2] is MES-SA. Put plainly: In vitro cytotoxic activity was evaluated using the MES-SA multidrug-resistant subline MES-SA/Dx5. To be noted: Homo sapiens. In kind it is functional, cell-based.
For assay [3], the system named is KB. As to the kind of experiment: In vitro cytotoxic activity was evaluated using the KB-3-1 resistant to adriamycin (ADR) subline KB-A1. To be noted: Homo sapiens. In kind it is functional, cell-based.
For assay [4], the system named is MES-SA. As to the kind of experiment: In vitro cytotoxic activity was evaluated using the human uterine sarcoma cell line MES-SA. Type of assay: functional, cell-based.
For another assay, the system named is L1210. As to the kind of experiment: In vitro cytotoxic activity was evaluated using the murine leukemia L1210 cell line. Type of assay: functional, cell-based. To be noted: Mus musculus.
For the next assay, the system named is KB 3-1. As to the kind of experiment: In vitro cytotoxic activity was evaluated using the human epidermoid carcinoma cell line KB-3-1. Type of assay: functional, cell-based.

As a reminder, the IC50 is the concentration at which inhibition is half-maximal.

As to `COc1cccc2c1C(=O)c1c(O)c3c(c(O)c1C2=O)C[C@@](O)(C(C)=O)C[C@@H]3OC1CC(Br)C(N=[N+]=[N-])C(C)O1` (some centres not stated), the Resistance factor was found to be 1.1 with KB [1] and 0.28 in the assay with SK-MES-1. The half-maximal inhibitory concentration (IC50) stood at 2000 nM in the assay on MES-SA [2]; 900 nM in the assay with KB [3]; 7000 nM in the assay on MES-SA [4]; 500 nM with L1210; 800 nM in the assay with KB 3-1.

For the compound `COc1cccc2c1C(=O)c1c(O)c3c(c(O)c1C2=O)C[C@@](O)(C(C)=O)C[C@@H]3O[C@H]1C[C@H](N)[C@H](O)[C@H](C)O1` [DAUNORUBICIN], the values for the Resistance factor in the assay with KB [1] and in the assay on SK-MES-1 were 295.7 and 42.8, respectively. The figures for the concentration for half-maximal inhibition (IC50) with MES-SA [2], in the assay with MES-SA [4] and with L1210 were 3000 nM, 70 nM and 40 nM, respectively.

In the case of `COc1cccc2c1C(=O)c1c(O)c3c(c(O)c1C2=O)C[C@@](O)(C(=O)CO)C[C@@H]3O[C@H]1C[C@H](N)[C@H](O)[C@H](C)O1` [DOXORUBICIN], the results for the Resistance factor in the assay with KB [1] and with SK-MES-1 were 333.8 and 48, respectively. Moreover, the values for the 50% inhibitory concentration (IC50) in the assay with MES-SA [2], in the assay with MES-SA [4] and in the assay with L1210 were 12000 nM, 250 nM and 25 nM, respectively.
